What was measured:
Dicots = assay: Preemergence weed control in flats (Example 14, Table II), dicot weeds; format: in vivo; settings: about 2 weeks after application
Procedure: (§1) Using the procedure described below, the benzophenones of Examples 1 and 2 were evaluated for control of the following weeds:
Coffeeweed (Sesbania spp.)
velvetleaf (Abutilon theophrasti)
(§2) The following test procedure is employed. Seeds of selected weeds are planted in soil in flats, and the flats are treated with the test compound immediately after the planting. The compound to be evaluated is dissolved in acetone, diluted with water, and sprayed over the flats using a carrier volume equivalent to 50 gallons per acre at the rate of application (pounds per acre, lb/A.) specified in the tables. About 2 weeks after the application of the test compound, the state of growth of the plants is observed and the phytotoxic effect of the compound is evaluated. Table II gives the average percent control achieved by the test compounds in terms of the percent of the plants which are killed by the compounds.

Monocots = assay: Preemergence weed control in flats (Example 14, Table II), monocot weeds; format: in vivo; settings: about 2 weeks after application
Procedure: as §1
Barnyardgrass (Echinochloa crusgalli)
Crabgrass (Digitaria spp.)
Foxtail (Setaria italica)
Johnsongrass (Sorghum halepense)
Quackgrass (Agropyron repens)
Yellow millet (Panicum miliaceaum)
Wild oats (Sesbania spp.)
as §2

| Structure (SMILES) | % Control, Dicots (average percent of the plants killed) (Dicots; 2 lb./A.) | % Control, Dicots (average percent of the plants killed) (Dicots; 4 lb./A.) | % Control, Dicots (average percent of the plants killed) (Dicots; 8 lb./A.) | % Control, Monocots (average percent of the plants killed) (Monocots; 2 lb./A.) | % Control, Monocots (average percent of the plants killed) (Monocots; 4 lb./A.) | % Control, Monocots (average percent of the plants killed) (Monocots; 8 lb./A.) |
| --- | --- | --- | --- | --- | --- | --- |
| COc1ccc(C(=O)c2cccc(C(F)(F)F)c2)cc1C [Example 1, 4-methoxy-3-methyl-3'-trifluoromethylbenzophenone] | 65% | 70% | 85% | 91% | 97% | 99% |
| COc1ccc(C(=O)c2cccc(C)c2)cc1C [Example 2, 4-methoxy-3,3'-dimethylbenzophenone] | 60% | 55% | 65% | 88% | 93% | 100% |
